Measured values from publication PMC5797143, “Epigenetic modulation of inflammation and synaptic plasticity promotes resilience against stress in mice” (Nature Communications, 2018).

What was measured:
[1] = In vivo safety: plasma ALP, AST, ALT, BUN; set-up: species or system mouse; details: 2 weeks, all doses tested
Description: We then initiated dose response and safety studies in mice to determine testing dosages and safety of DHCA and Mal-gluc. C57BL/6 mice were treated with either DHCA (doses ranging from 50 µg to 50 mg/kg-BW/day) or Mal-gluc (doses ranging from 50 ng to 5 mg/kg-BW/day) for 2 weeks to simulate long-term administration. Mice treated with DHCA were challenged with intraperitoneal (i.p.) injection of 0.4 mg/kg-BW LPS and plasma levels of IL-6 were measured 6 h post injection. […] Following common discovery-stage practices, we measured the plasma levels of alkaline phosphatase (ALP), aspartate aminotransferase (AST), and alanine aminotransferase (ALT) for liver function and blood urea nitrogen (BUN) for renal function.
Male C57BL/6 J mice (8-week-old) were placed on a polyphenol-free AIN-93M diet and treated with various doses of DHCA (vehicle, 50 µg, 500 µg, 5 mg, and 50 mg/kg-BW/day), delivered through their drinking water for two weeks. Animals were then sacrificed and plasma was collected for routine biochemistry panel analysis including ALP, ALT, and AST for liver function and blood urea nitrogen (BUN) content for kidney function. A separate group of mice was similarly treated and challenged with an i.p. injection of 0.4 mg/kg body weight LPS and plasma was collected 6 h post injection for IL-6 analysis. […]

[2] = Plasma stability, human plasma; format: in vitro ADME; details: 37 °C
Description: (§1) Compound stability in mouse and human plasma and in mouse brain homogenate were conducted, [45]. Specifically, Mal-gluc or DHCA was incubated in duplicate with plasma at 37 °C and samples were taken at various time points and mixed with three volumes of ice-cold Stop Solution (methanol containing propranolol, diclofenac, or other internal standard). Samples were centrifuged to remove precipitated protein, and the supernatants were analyzed by LC/MS/MS to quantitate for remaining test compound. Data are converted to percentage remaining by dividing by the time zero concentration value. Data are fit to a first-order decay model to determine half-life. Plasma protein binding were conducted using both mouse and human plasma.

[3] = tested on: MSN-enriched primary neurons and PBMCs; experiment: MTT assay; format: cell-based, mouse
Description: (§2) MTT and LDH release assays were conducted in MSN-enriched primary neurons and in PBMCs[64]. Cellular cytotoxicity was conducted in HepG2 cells using high content screening (HCS) protocols. Briefly, HepG2 cells were plated on 384-well tissue culture treated black walled clear bottomed polystyrene plates and treated with varying concentrations of Mal-gluc or DHCA. The cells were loaded with the relevant dye/antibody for each cell-health marker following incubation, including cell count, markers for nuclear size, DNA structure, cell membrane permeability, mitochondrial mass, mitochondrial membrane potential and cytochrome C release. The plates were then scanned using an automated fluorescent cellular imager ArrayScanr (Thermo Scientific Cellomics).

[4] = Plasma stability, mouse plasma; format: in vitro ADME; details: 37 °C
Description: as §1

[5] = target: T1, human Ether-à-go-go-related gene (hERG) (Homo sapiens, UniProt Q12809); experiment: In vitro cardiotoxicity, hERG inhibition (IonWorks HT, CHO cells); format: cell-based; details: CHO cells stably transfected with hERG
T1 construct: expressed in transfected cells; host or cells: CHO cells, stably transfected
T1 sequence (Q12809 whole entry): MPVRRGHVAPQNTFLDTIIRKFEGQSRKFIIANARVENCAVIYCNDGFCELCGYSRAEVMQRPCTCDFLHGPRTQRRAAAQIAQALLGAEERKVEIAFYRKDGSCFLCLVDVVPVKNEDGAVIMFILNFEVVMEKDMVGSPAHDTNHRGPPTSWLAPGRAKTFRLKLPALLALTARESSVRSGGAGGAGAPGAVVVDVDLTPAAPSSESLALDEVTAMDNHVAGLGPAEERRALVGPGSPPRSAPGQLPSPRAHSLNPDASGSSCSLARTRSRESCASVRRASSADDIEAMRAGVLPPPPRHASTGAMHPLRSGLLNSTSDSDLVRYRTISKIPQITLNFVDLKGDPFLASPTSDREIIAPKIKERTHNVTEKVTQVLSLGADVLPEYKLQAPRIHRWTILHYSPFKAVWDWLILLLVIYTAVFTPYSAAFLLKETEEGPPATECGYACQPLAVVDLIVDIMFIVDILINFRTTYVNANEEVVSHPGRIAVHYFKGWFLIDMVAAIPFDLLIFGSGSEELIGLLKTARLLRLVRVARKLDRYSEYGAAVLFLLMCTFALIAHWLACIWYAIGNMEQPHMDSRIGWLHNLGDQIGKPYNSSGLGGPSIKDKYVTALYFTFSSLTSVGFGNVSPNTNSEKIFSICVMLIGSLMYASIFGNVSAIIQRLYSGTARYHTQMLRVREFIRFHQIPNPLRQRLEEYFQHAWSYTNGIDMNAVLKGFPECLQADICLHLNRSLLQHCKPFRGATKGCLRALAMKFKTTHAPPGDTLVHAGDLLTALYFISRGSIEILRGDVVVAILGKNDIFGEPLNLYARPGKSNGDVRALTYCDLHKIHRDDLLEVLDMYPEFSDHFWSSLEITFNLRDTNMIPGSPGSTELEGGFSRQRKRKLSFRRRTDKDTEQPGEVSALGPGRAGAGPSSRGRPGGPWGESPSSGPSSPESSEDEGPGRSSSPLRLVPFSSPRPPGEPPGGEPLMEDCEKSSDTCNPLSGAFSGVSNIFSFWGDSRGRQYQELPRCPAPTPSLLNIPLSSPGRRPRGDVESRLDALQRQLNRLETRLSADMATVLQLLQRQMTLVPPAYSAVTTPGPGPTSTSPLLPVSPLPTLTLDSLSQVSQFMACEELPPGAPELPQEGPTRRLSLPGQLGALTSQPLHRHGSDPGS
Description: Cardiotoxicity was assessed using CHO cells stably transfected with the hERG using the IonWorks HT instrument (Molecular Devices Corporation), which automatically performs electrophysiology measurements in 48 single cells simultaneously in a specialized 384-well plate (PatchPlate)[42]. A single-cell suspension was added to the wells of a PatchPlate to form an electrical seal at the bottom and pre-compound currents were recorded. Various concentrations of Mal-gluc or DHCA were added to the cells in four replicates for 5 min and post-compound currents were then recorded. Post-compound currents are then expressed as a percentage of pre-compound currents and plotted against concentration for each compound and IC50 was calculated.

D1 (dopamine receptor) = target: T2, D1 (dopamine receptor) (Homo sapiens, UniProt P21728); experiment: Radioligand binding assay; details: 10 µM; HEK membrane fractions; quadruplicate
T2 construct: purchased NIMH Psychoactive Drug Screening Program (PDSP)
T2 sequence (P21728 whole entry): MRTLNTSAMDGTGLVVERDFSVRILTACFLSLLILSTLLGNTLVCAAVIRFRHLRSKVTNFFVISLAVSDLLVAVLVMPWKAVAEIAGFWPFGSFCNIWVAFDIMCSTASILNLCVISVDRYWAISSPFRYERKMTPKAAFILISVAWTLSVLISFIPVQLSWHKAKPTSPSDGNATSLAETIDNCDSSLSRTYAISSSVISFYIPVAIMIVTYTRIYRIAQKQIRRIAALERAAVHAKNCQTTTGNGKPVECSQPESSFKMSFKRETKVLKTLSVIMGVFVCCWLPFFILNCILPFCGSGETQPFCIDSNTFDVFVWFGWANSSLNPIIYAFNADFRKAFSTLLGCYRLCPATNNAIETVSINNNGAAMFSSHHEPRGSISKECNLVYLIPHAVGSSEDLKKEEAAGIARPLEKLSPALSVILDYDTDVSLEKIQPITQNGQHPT
Description: (§3) Radioligand binding assays were performed as previously described. Briefly, crude membrane fractions prepared from a stable HEK cell line expressing recombinant receptors were mixed with a radiolabeled specific ligand and 10 µM of competitor compound (DHCA, Mal-gluc, or non-specific ligand). The percentage of radioligand binding was subsequently measured.

[6] = target: T3, 5-HT1B (serotonin receptor) (Homo sapiens, UniProt P28222); experiment: Radioligand binding assay; details: 10 µM; HEK membrane fractions; quadruplicate
T3 construct: purchased NIMH Psychoactive Drug Screening Program (PDSP)
Description: as §3

[7] = target: T4, Alpha1B (alpha adrenergic receptor) (Homo sapiens, UniProt P35368); experiment: Radioligand binding assay; details: 10 µM; HEK membrane fractions; quadruplicate
T4 construct: purchased NIMH Psychoactive Drug Screening Program (PDSP)
Description: as §3

[8] = target: T5, 5-HT2B (serotonin receptor) (Homo sapiens, UniProt P41595); experiment: Radioligand binding assay; details: 10 µM; HEK membrane fractions; quadruplicate
T5 construct: purchased NIMH Psychoactive Drug Screening Program (PDSP)
T5 sequence (P41595 whole entry): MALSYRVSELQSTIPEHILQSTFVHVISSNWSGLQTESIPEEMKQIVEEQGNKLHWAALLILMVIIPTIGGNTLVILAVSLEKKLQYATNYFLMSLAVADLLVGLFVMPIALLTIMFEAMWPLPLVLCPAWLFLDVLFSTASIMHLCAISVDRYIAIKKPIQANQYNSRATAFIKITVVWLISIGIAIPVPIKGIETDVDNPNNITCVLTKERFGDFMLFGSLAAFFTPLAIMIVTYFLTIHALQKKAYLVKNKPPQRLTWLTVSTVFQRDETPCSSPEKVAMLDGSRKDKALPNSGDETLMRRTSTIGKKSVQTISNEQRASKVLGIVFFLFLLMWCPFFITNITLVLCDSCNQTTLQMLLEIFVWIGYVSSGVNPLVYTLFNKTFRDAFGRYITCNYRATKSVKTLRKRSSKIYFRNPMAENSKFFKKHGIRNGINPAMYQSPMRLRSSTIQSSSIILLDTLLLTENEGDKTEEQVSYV
Description: as §3

[9] = target: T6, 5-HT1A (serotonin receptor) (Homo sapiens, UniProt P08908); experiment: Radioligand binding assay; details: 10 µM; HEK membrane fractions; quadruplicate
T6 construct: purchased NIMH Psychoactive Drug Screening Program (PDSP)
T6 sequence (P08908 whole entry): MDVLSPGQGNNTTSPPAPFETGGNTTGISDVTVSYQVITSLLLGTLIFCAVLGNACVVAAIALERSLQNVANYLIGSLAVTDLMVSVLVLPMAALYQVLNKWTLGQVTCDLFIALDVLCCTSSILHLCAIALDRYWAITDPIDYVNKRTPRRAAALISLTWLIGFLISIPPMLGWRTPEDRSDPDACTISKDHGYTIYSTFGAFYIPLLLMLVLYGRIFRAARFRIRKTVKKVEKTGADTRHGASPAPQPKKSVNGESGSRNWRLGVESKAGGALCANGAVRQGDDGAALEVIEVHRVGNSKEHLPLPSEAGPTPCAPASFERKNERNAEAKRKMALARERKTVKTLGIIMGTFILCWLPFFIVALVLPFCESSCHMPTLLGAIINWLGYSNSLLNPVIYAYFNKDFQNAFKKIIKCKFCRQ
Description: as §3

[10] = target: T7, SERT (serotonin transporter) (Homo sapiens, UniProt P31645); experiment: Radioligand binding assay; details: 10 µM; HEK membrane fractions; quadruplicate
T7 construct: purchased NIMH Psychoactive Drug Screening Program (PDSP)
Description: as §3

DOR (δ-opioid receptor) = target: T8, DOR (δ-opioid receptor) (Homo sapiens, UniProt P41143); experiment: Radioligand binding assay; details: 10 µM; HEK membrane fractions; quadruplicate
T8 construct: purchased NIMH Psychoactive Drug Screening Program (PDSP)
Description: as §3

M1 (muscarinic receptor) = target: T9, M1 (muscarinic receptor) (Homo sapiens, UniProt P11229); experiment: Radioligand binding assay; details: 10 µM; HEK membrane fractions; quadruplicate
T9 construct: purchased NIMH Psychoactive Drug Screening Program (PDSP)
T9 sequence (P11229 whole entry): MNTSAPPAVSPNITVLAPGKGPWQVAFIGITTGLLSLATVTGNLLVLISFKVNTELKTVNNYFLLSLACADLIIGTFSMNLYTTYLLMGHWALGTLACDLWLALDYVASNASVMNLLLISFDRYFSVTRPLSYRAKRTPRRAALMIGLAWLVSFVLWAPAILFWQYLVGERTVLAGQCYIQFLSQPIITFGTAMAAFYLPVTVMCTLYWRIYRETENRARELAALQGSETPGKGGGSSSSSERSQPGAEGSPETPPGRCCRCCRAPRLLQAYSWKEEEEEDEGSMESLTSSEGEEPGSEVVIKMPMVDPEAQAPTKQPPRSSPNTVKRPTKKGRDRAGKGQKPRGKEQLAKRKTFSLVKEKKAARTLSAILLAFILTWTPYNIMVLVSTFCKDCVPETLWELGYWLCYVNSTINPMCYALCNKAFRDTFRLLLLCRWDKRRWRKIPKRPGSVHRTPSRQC
Description: as §3

[11] = target: T10, Alpha2C (alpha adrenergic receptor) (Homo sapiens, UniProt P18825); experiment: Radioligand binding assay; details: 10 µM; HEK membrane fractions; quadruplicate
T10 construct: purchased NIMH Psychoactive Drug Screening Program (PDSP)
T10 sequence (P18825 whole entry): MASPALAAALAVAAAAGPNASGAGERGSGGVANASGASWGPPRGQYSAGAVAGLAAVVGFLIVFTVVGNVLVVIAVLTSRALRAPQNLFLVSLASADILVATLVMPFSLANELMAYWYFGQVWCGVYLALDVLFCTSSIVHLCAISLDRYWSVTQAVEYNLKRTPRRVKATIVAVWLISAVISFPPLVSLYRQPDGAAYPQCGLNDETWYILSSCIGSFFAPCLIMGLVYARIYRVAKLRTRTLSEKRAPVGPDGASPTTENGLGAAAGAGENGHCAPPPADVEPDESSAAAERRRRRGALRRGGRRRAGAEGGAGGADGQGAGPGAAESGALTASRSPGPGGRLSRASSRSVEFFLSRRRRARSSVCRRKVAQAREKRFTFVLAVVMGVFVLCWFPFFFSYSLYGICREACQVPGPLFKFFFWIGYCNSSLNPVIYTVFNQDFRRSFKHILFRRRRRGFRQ
Description: as §3

[12] = target: T11, Beta1 (beta adrenergic receptor) (Homo sapiens, UniProt P08588); experiment: Radioligand binding assay; details: 10 µM; HEK membrane fractions; quadruplicate
T11 construct: purchased NIMH Psychoactive Drug Screening Program (PDSP)
Description: as §3

D5 (dopamine receptor) = target: T12, D5 (dopamine receptor) (Homo sapiens, UniProt P21918); experiment: Radioligand binding assay; details: 10 µM; HEK membrane fractions; quadruplicate
T12 construct: purchased NIMH Psychoactive Drug Screening Program (PDSP)
Description: as §3

M2 (muscarinic receptor) = target: T13, M2 (muscarinic receptor) (Homo sapiens, UniProt P08172); experiment: Radioligand binding assay; details: 10 µM; HEK membrane fractions; quadruplicate
T13 construct: purchased NIMH Psychoactive Drug Screening Program (PDSP)
T13 sequence (P08172 whole entry): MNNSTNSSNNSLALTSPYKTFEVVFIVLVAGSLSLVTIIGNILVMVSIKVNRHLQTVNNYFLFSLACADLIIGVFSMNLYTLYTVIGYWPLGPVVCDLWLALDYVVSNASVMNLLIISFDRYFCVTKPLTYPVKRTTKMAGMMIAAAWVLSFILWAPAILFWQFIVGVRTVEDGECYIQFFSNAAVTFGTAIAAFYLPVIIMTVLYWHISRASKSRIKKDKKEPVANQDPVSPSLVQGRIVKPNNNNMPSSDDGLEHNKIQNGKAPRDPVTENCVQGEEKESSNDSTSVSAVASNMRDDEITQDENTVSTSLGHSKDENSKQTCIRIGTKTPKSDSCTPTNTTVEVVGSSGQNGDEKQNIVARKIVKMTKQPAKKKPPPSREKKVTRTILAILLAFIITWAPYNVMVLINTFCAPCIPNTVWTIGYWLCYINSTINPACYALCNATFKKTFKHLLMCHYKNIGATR
Description: as §3

[13] = target: T14, Alpha2A (alpha adrenergic receptor) (Homo sapiens, UniProt P08913); experiment: Radioligand binding assay; details: 10 µM; HEK membrane fractions; quadruplicate
T14 construct: purchased NIMH Psychoactive Drug Screening Program (PDSP)
T14 sequence (P08913 whole entry): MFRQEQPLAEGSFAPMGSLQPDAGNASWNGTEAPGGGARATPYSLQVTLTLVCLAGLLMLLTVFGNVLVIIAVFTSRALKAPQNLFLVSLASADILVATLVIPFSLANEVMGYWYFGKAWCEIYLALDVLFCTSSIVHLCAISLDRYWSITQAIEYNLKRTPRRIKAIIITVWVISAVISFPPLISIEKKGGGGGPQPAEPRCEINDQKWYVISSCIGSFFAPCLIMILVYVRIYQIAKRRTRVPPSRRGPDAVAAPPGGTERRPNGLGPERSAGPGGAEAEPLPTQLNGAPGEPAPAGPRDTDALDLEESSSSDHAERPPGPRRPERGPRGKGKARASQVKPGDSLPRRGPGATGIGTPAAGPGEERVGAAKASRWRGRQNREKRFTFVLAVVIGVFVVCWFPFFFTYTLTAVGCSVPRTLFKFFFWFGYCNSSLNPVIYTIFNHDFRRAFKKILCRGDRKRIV
Description: as §3

D3 (dopamine receptor) = target: T15, D3 (dopamine receptor) (Homo sapiens, UniProt P35462); experiment: Radioligand binding assay; details: 10 µM; HEK membrane fractions; quadruplicate
T15 construct: purchased NIMH Psychoactive Drug Screening Program (PDSP)
T15 sequence (P35462 whole entry): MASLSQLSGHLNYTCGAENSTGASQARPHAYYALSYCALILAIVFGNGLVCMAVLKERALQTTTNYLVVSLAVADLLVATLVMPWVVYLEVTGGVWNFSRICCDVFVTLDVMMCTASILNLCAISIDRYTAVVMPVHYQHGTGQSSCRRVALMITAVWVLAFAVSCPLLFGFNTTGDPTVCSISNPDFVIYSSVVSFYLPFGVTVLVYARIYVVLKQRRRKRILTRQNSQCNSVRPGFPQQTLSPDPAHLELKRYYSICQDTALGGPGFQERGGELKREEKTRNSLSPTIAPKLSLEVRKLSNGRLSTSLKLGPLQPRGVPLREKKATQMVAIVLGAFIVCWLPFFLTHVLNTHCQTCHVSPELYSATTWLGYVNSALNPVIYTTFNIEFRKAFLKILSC
Description: as §3

[14] = tested on: PBR (peripheral benzodiazepine receptor); experiment: Radioligand binding assay; details: 10 µM; HEK membrane fractions; quadruplicate
Description: as §3

[15] = tested on: MSN-enriched primary neurons and PBMCs; experiment: LDH release assay; format: cell-based, mouse
Description: as §2

SMILES | plasma ALP, AST, ALT (liver function) and BUN (renal function) [1] | MTT assay, % of vehicle control [3] | IC50 [5] | Binding activity, D1 (percentage) (D1 (dopamine receptor)) | Binding activity, 5-HT1B (percentage) [6] | Binding activity, Alpha1B (percentage) [7] | Binding activity, 5-HT2B (percentage) [8] | Binding activity, 5-HT1A (percentage) [9] | Binding activity, SERT (percentage) [10] | Binding activity, DOR (percentage) (DOR (δ-opioid receptor)) | Binding activity, M1 (percentage) (M1 (muscarinic receptor)) | Binding activity, Alpha2C (percentage) [11] | Binding activity, Beta1 (percentage) [12] | Binding activity, D5 (percentage) (D5 (dopamine receptor)) | Binding activity, M2 (percentage) (M2 (muscarinic receptor)) | Binding activity, Alpha2A (percentage) [13] | Binding activity, D3 (percentage) (D3 (dopamine receptor)) | Binding activity, PBR (percentage) [14] | LDH assay, % of vehicle control [15] | other results
O=C(O)CCc1ccc(O)c(O)c1 [DHCA, 3(3,4-dihydroxy-phenyl) propionic acid] | neither phytochemical induced significant changes in any of the indexes | 100% | > 25 µM | −3.7% | −11.8% | 11.1% | −7% | 3.3% | −0.9% | 9.5% | −1.8% | 27.3% | −14.1% | 5.1% | −12.2% | 15.7% | −18.8% | −13.3% | 100% | half-life ([2]; human, plasma): 1.11 h; half-life ([4]; mouse, plasma): 0.735 h
COc1cc(-c2[o+]c3cc(O)cc(O)c3cc2O[C@@H]2O[C@H](CO)[C@@H](O)[C@H](O)[C@H]2O)cc(OC)c1O [Mal-gluc] | neither phytochemical induced significant changes in any of the indexes | 100% | > 25 µM | −10.3% | 10.4% | 24.4% | −13.8% | 8.6% | 7.8% | −10.2% | −6.2% | −11% | −15.5% | −2% | 5.2% | 7.3% | 7.2% | 15.7% | 100% | Plasma stability, Half-life (human plasma) [2]: 4.17 h; Plasma stability, Half-life (mouse plasma) [4]: 3.35 h
